Data taken from patent US9790231B2 (LUPIN LIMITED, priority 2013, dated 2017).
Counter-ions that a name gives are not always drawn.

Each molecule was assayed on IL-2 secretion by Jurkat T cells (assay: Inhibition of IL-2 secretion (PHA-stimulated Jurkat T cells, ELISA)). Conditions: Homo sapiens, 20 to 24 hours.
Type: cell-based
Method: The CRAC channel modulatory activity of the compounds were thus evaluated by measuring the secretion of IL-2 by antigen stimulated T-cells in vitro. Alternatively, such activity can also be evaluated by assay methods known to one skilled in the art.
Inhibition of IL-2 secretion: Jurkat T cells were seeded at a density of 0.5 to 1 million cells per well in RPMI medium. Test compounds from this invention were added to the cells at different concentrations. This was followed by the addition of PHA, a T cell mitogen after 10 minutes. The cells were then incubated for 20 to 24 hours in a CO2 incubator at 37° C. After incubation with the compounds, cells were centrifuged; the supernatant was collected and processed for ELISA to quantitate the amount of IL-2 secreted. A commercial ELISA kit (R&D Systems, Inc. Minneapolis, Minn., USA) was used to estimate the IL-2 concentrations. Amount of IL-2 secreted by cells stimulated with PHA was considered as a 100% maximal signal and the decrease in amount of IL-2 secreted by cells treated with the test compounds was expressed as percent inhibition of the maximal signal. The dose response data was analyzed using 4-parametric sigmoidal dose response (variable slope) curve-fit.
For `Cc1cccc2c1OC1(C=C2c2cnc(NC(=O)c3c(F)cccc3F)cn2)CCC1` [Example 100, 2,6-Difluoro-N-(5-(8-methylspiro[chromene-2,1′-cyclobutan]-4-yl)pyrazin-2-yl)benzamide], the IC50 was under 25 nM.
Molecule `Cc1cccc2c1OC1(C=C2c2ccc(NC(=O)c3c(F)cccc3F)nc2)CCC1` [Example 101, 2,6-Difluoro-N-(5-(8-methylspiro[chromene-2,1′-cyclobutan]-4-yl)pyridin-2-yl)benzamide] has an IC50 of under 25 nM.
For `Cc1cccc2c1OC1(C=C2c2ccc(NC(=O)c3c(F)cccc3F)cn2)CCC1` [Example 102, 2,6-Difluoro-N(6-(8-methylspiro[chromene-2,1′-cyclobutan]-4-yl)pyridin-3-yl)benzamide], the IC50 was 25 to 50 nM.
`COCC1(C)C=C(c2cnc(NC(=O)c3c(F)cccc3F)cn2)c2cccc(C)c2O1` (stereo not shown) [Example 103, 2,6-Difluoro-N-(5-(2-(methoxymethyl)-2,8-dimethyl-2H-chromen-4-yl)pyrazin-2-yl)benzamide] gave an IC50 of under 25 nM.
With `COCC1(C)C=C(c2ccc(NC(=O)c3c(F)cccc3F)nc2)c2cccc(C)c2O1` (stereo not shown) [Example 104, 2,6-Difluoro-N-(5-(2-(methoxymethyl)-2,8-dimethyl-2H-chromen-4-yl)pyridin-2-yl)benzamide] the IC50 was under 25 nM.
Molecule `COCC1(C)C=C(c2ccc(NC(=O)c3c(F)cccc3F)cn2)c2cccc(C)c2O1` (stereo not shown) [Example 105, 2,6-Difluoro-N-(6-(2-(methoxymethyl)-2,8-dimethyl-2H-chromen-4-yl)pyridin-3-yl)benzamide] has an IC50 of 100 to 500 nM.
`Cc1ccc2c(c1)C(c1ccc(NC(=O)c3c(F)cccc3F)nc1)=CC1(CCC1)O2` [Example 106, 2,6-Difluoro-N-(5-(6-methylspiro[chromene-2,1′-cyclobutan]-4-yl)pyridin-2-yl)benzamide] was tested, and the IC50 was 100 to 500 nM.
`CC1(C)C=C(c2ccc(NC(=O)c3c(F)cccc3F)nc2)c2ccccc2O1` [Example 108, N-(5-(2,2-Dimethyl-2H-chromen-4-yl)pyridin-2-yl)-2,6-difluorobenzamide] gave an IC50 of 25 to 50 nM.
`Cc1ccc2c(c1)OC1(C=C2c2ccc(NC(=O)c3c(F)cccc3F)nc2)CCC1` [Example 109, 2,6-Difluoro-N-(5-(7-methylspiro[chromene-2,1′-cyclobutan]-4-yl)pyridin-2-yl)benzamide] gave an IC50 of 100 to 500 nM.
Molecule `Cc1cccc2c1OC1(C=C2c2ccc(C(=O)Nc3c(F)cncc3F)cc2)CCC1` [Example 111, N-(3,5-Difluoropyridin-4-yl)-4-(8-methylspiro[chromene-2,1′-cyclobutan]-4-yl)benzamide] has an IC50 of 25 to 50 nM.
In the case of `Cc1cc2c(cc1-c1cnc(NC(=O)c3c(F)cccc3F)cn1)OC(C)(CO)CC2` (stereo not shown) [Example 114, 2,6-Difluoro-N-(5-(2-(hydroxymethyl)-2,6-dimethylchroman-7-yl)pyrazin-2-yl)benzamide], the IC50 is reported as 25 to 50 nM.
Molecule `Cc1cc2c(cc1-c1ccc(C(=O)Nc3c(F)cccc3F)cc1)OC1(CCC1)CC2` [Example 116, N-(2,6-Difluorophenyl)-4-(6-methylspiro[chroman-2,1′-cyclobutan]-7-yl)benzamide] has an IC50 of 25 to 50 nM.
For `Cc1cc2c(cc1-c1ccc(NC(=O)c3c(F)cccc3F)cc1)OC1(CNC1)CC2=O` [Example 120, 2,6-Difluoro-N-(4-(6′-methyl-4′-oxospiro[azetidine-3,2′-chroman]-7′-yl)phenyl)benzamide hydrochloride], the IC50 was 50 to 100 nM.
In the case of `Cc1cc2c(cc1-c1ccc(NC(=O)c3c(F)cccc3F)cc1)OC1(CC2=O)CN(C)C1` [Example 121, N-(4-(1,6′-Dimethyl-4′-oxospiro[azetidine-3,2′-chroman]-7′-yl)phenyl)-2,6-difluorobenzamide], the IC50 is reported as 25 to 50 nM.
`Cc1cc2c(cc1-c1ccc(NC(=O)c3c(F)cccc3F)nc1)OC1(COC1)CC2=O` [Example 124, 2,6-Difluoro-N-(5-(6-methyl-4-oxospiro[chroman-2,3′-oxetan]-7-yl)pyridin-2-yl)benzamide] gave an IC50 of 25 to 50 nM.
`CCc1cc2c(cc1-c1ccc(NC(=O)c3c(F)cccc3F)cc1)OC1(COC1)CC2=O` [Example 125, N-(4-(6-Ethyl-4-oxospiro[chroman-2,3′-oxetan]-7-yl)phenyl)-2,6-difluorobenzamide] gave an IC50 of under 25 nM.
